# Laboratory results: patent publication US20200399392A1, “INHIBITORS OF PLA2-G1B COFACTORS FOR TREATING CANCER” (priority 2018, published 2020)
# T1: gC1qR (Homo sapiens, UniProt Q07021)
# T1 sequence (Q07021 74-282): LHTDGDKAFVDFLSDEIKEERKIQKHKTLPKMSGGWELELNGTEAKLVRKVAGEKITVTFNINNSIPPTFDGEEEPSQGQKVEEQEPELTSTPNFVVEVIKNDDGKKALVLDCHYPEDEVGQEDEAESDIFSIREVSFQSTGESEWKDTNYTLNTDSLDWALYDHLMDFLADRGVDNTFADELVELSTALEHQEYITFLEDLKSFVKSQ
# B1: PEP3 peptide NH2-…-COOH (peptide)
# peptide: H-PWNASWSNKSLDDIW-OH
# How the values were obtained:
# pSTAT5 NT in CD4 T cells = test: PLA2-GIB bioassay on CD4 T cells: pSTAT5 nuclear translocation in response to IL-7, confocal microscopy; type: cell-based, human; conditions: for effect on pSTAT5 NT: FIG. 5B; for nuclear translocation of phosphoSTAT5 (pSTAT5 NT) induced by IL-7: buffer, FIG. 1A; for pSTAT5 NT in response to IL-7: FIG. 2
# Excerpt: Purification of Human CD4 T-lymphocytes—Venous blood was obtained from healthy volunteers through the EFS (Etablissement Français du Sang, Centre Necker-Cabanel, Paris). CD4 T-cells were purified from whole blood using RosetteSep Human CD4+ T cell Enrichment Cocktail (Stem Cell, 15062). This cocktail contains mouse and rat monoclonal antibodies purified from mouse ascites fluid or hybridoma culture supernatant, by affinity chromatography using protein A or Protein G sepharose. These antibodies are bound in bispecific tetrameric antibody complexes which are directed against cell surface antigens on human hematopoietic cells (CD8, CD16, CD19, CD36, CD56 CD66b, TCRγ/δ) and glycophorin A on red blood cells. The rosetteSep antibody cocktail crosslinks unwanted cells in human whole blood to multiple red blood cells, forming immunorosettes. This increases the density of unwanted cells, such that they pellet along with the free red blood cells when centrifuged over a buoyant density medium such as lymphocytes separation medium (Eurobio, CMSMSL01-01).
# Whole blood was incubated with RosetteSep Human CD4+ T cell Enrichment Cocktail at 50 μl/ml for 20 minutes at room temperature under gentle shaking (100 rpm), diluted with an equal volume of PBS+2% foetal bovine serum (FBS) and mixed gently. The diluted samples were centrifuged 20 minutes at 1200×g on top of lymphocytes separation medium. The enriched cells were then collected from the density medium at plasma interface and washed twice with PBS+2% FBS. Cells were subsequently resuspended in RPMI 1640 medium (Lonza) supplemented with 5% FBS, 50 mM HEPES pH 7.4, glutamine, penicillin, streptomycin and fungizone (complete medium), counted with a Moxi Z mini automated cell counter (ORFLO, MXZ000). Cells suspension was adjusted at 7×10^6 cells/ml and equilibrated at least 2 h at 37° C. in a 5% CO2 humidified atmosphere.
# The enriched CD4-T cell population was controlled by flow cytometry on a cytoflex (Beckman coulter). The quiescence of recovered CD4 T-cells was controlled by the low level of IL-2Rα (CD25).
# gC1qR = molecular target: T1, gC1qR; test: gC1qR-peptides binding assay (ELISA on microplates); conditions: peptide coated, His-tag-gC1qR 0 to 3 μg/well, FIG. 12
# Protocol: The unbound protein was removed; the wells washed 2× with TBST (20 mM Tris-HCl pH 7.5, 150 mM NaCl, and 0.05% Tween-20) and the unreacted sites blocked by incubation (30 min, room temp) with 300 μl of 3% BSA in TBST. After washing (2× with TBST), the microtiter plate bound peptides was incubated (2 h, room temp.) with different amount of His-tag-gC1qR ranging from 0 to 3 μg/well in triplicate. After washing (5 times with TBST), 100 μl of anti-His tag-HRP antibody (1:1000; 71840-3, Merck) in 3% BSA in TBST was added per well and incubated for 2 h at room temperature. Microplates wells were then washed (5 times with TBST) and 100 μl of TMB ELISA substrate standard solution (UP664781, Interchim) was added per well. Reaction was stopped with 100 μl per well of a H2SO4 solution at 0.16M and OD at 450 nm was measured on a microplate reader (Tecan Infinite M1000 Pro).
# A scrambled peptide or a control peptide were used as control.
# PLA2-GIB [1] = test: PLA2-GIB enzymatic assay on [3H] arachidonic acid labelled Jurkat E6.1 T cells; type: cell-based, human; conditions: Jurkat E6.1 cells pretreated 21 h, 200 nM PLA2-GIB, FIG. 15
# Protocol: Jurkat E6.1 T cells (ECACC 88042803) or gC1qR KO Jurkat E6.1 T cells were incubated for 17 h at 5×10^5 cells/ml with 1 μCi/ml of arachidonic acid [5,6,8,9,11,14,15-^3H(N)] (Perkin Elmer, NET298Z250UC) in RPMI 1640 medium (Lonza) supplemented with 10% FBS, 50 mM HEPES pH 7.4, glutamine, penicillin, streptomycin and fungizone at 2 ml/well in 6-well plates at 37° C. in a 5% CO2 humidified atmosphere. Cells were washed twice with RPMI with 10% FBS by centrifugation at 300×g for 10 minutes at room temperature and then frozen in 90% FBS 10% DMSO at 10^7 cells/ml/vial at −80° C. Percent of [3H] arachidonic acid in CD4 T cells is the (1 minus ratio of [3H] arachidonic acid in the supernatant of CD4 T cells without cells (cpm/ml) on total [3H] arachidonic acid in supernatant and cells (cpm/ml).
# To test PLA2-GIB activity on [3H] arachidonic acid labelled Jurkat E6.1 T lymphocytes, cells were unfrozen in 10% FBS RPMI preheated at 37° C. by centrifugation at 300×g for 10 minutes at room temperature, washed twice in 2.5% FBS RPMI, and equilibrated at 5×10^4 or 10^5 Jurkat E6.1 T cells/400 μl/well in 24-well polystyrene plates for 1 h30 at 37° C. in a 5% CO2 humidified atmosphere. Then HCV core solution or vehicle dilution in 2.5% FBS RPMI at 5.95 μM was mixed with an equal volume of a PLA2GIB solution at 630 nM or 2 μM 2.5% FBS RPMI and 100 μl were added per well at the same time for 2 h. For peptide treatments, cells were pretreated for 2 h, 4 h or 21 h, as indicated on figures, with 50 μl per well of peptide solutions at 110 μM or 55 μM in 2.5% FBS RPMI. Then 50 μl per well of PLA2-GIB at 630 nM or 2 μM 2.5% FBS RPMI or medium alone were added for 2 h. Cells and supernatant were collected in eppendorf tubes and centrifuged at 580×g for 10 minutes at room temperature. The [3H] arachidonic acid released in cell supernatant was quantified in 300 μl with 16 ml of Ultima gold (Perkin Elmer, 6013329) in low diffusion vials (Perkin Elmer, 6000477) on a counter (tri-Carb 2800 TR liquid scintillation analyzer, Perkin Elmer).
# PLA2-GIB [2] = test: PLA2-GIB enzymatic assay on [3H] arachidonic acid labelled CD4 T cells; type: cell-based, human; conditions: SA protein A alone at 10, 25 and 50 μg/ml, FIG. 9A
# Protocol: PLA2-GIB enzymatic assay on [3H] arachidonic acid labelled CD4 T cells or Jurkat E6.1 T cells—Purified CD4 T-cells were incubated for 16 h at 2×10^6 cells/ml with 1 μCi/ml of arachidonic acid [5,6,8,9,11,14,15-^3H(N)] (Perkin Elmer, NET298Z250UC) in RPMI 1640 medium (Lonza) supplemented with 10% FBS, 50 mM HEPES pH 7.4, glutamine, penicillin, streptomycin and fungizone at 2 ml/well in 6-well plates at 37° C. in a 5% CO2 humidified atmosphere. Cells were washed twice with RPMI with 10% FBS by centrifugation at 580×g for 10 minutes at room temperature and then frozen in 90% FBS 10% DMSO at 10^7 cells/ml/vial at −80° C. […]
# To test PLA2-GIB activity on [3H] arachidonic acid labelled CD4 T lymphocytes, cells were unfrozen in 10% FBS RPMI preheated at 37° C. by centrifugation at 580×g for 10 minutes at room temperature, washed twice in 2.5% FBS RPMI, and equilibrated at 2×10^5 CD4 T cells/400 μl/well in 24-well polystyrene plates for 1 h30 at 37° C. in a 5% CO2 humidified atmosphere. […] The [3H] arachidonic acid released in cell supernatant was quantified in 300 μl with 16 ml of Ultima gold (Perkin Elmer, 6013329) in low diffusion vials (Perkin Elmer, 6000477) on a counter (tri-Carb 2800 TR liquid scintillation analyzer, Perkin Elmer). […]
# [3] = molecular target: gC1qR at the surface of human CD4 T cells / Jurkat E6.1 T cells (human) (UniProt Q07021); test: cell-based or functional assay
molecule,measurement,setting,value
"C1q: Complement component C1q from human serum (Sigma C1740), natural ligand of gC1qR",inhibition of pSTAT5 NT,"pSTAT5 NT in CD4 T cells; C1q alone (10 μg/ml), FIG. 6A",40%
"NH2-PWNATWTQRTLDDIW—COOH (H-PWNATWTQRTLDDIW-OH) [CTL peptide, control peptide for PEP3]",effect on pSTAT5 NT,"pSTAT5 NT in CD4 T cells; peptide alone, without PLA2-GIB",no effect
same,effect on pSTAT5 NT,pSTAT5 NT in CD4 T cells; peptide with 5 nM of PLA2-GIB,no effect
same,binding to gC1qR,gC1qR,essentially do not
NH2-SGEGGWSNGSLVDIM-COOH (H-SGEGGWSNGSLVDIM-OH) [HP Pg],PLA2-GIB activity vs scrambled PEP3,PLA2-GIB [1],significantly increased
"NH2-WNWDSKILSDPAWNS—COOH (H-WNWDSKILSDPAWNS-OH) [Scrambled PEP3, scrambled version of PEP3 used as control]",binding to gC1qR,gC1qR,essentially do not
"PLA2-GIB: Human group IB pancreatic phospholipase A2, recombinant, produced in E. coli or in CHO-S",nuclear translocation of phosphoSTAT5 (pSTAT5 NT) induced by IL-7,pSTAT5 NT in CD4 T cells; 5 nM of PLA2-GIB alone,does not affect
same,pSTAT5 NT in response to IL-7,"pSTAT5 NT in CD4 T cells; 5 nM of PLA2-GIB, compared with more than 92% without PLA2-GIB",biologically similar
same,inhibition of pSTAT5 NT,"pSTAT5 NT in CD4 T cells; 75 nM of PLA2-GIB alone, FIG. 4",49%
same,nuclear translocation of phosphoSTAT5 (pSTAT5 NT) induced by IL-7,pSTAT5 NT in CD4 T cells; 75 nM of PLA2-GIB alone,significantly decreases
same,pSTAT5 NT in response to IL-7,pSTAT5 NT in CD4 T cells; 75 nM of PLA2-GIB,50%
same,inhibition of pSTAT5 NT,"pSTAT5 NT in CD4 T cells; 250 nM of PLA2-GIB alone, FIG. 4",79%
same,pSTAT5 NT in response to IL-7,pSTAT5 NT in CD4 T cells; 250 nM of PLA2-GIB,10%
"SA protein A: Staphylococcus aureus protein A, Sigma P6031",release of [3H] arachidonic acids by CD4 T cells,PLA2-GIB [2],slightly induces
B1,"inhibition of pSTAT5 NT in CD4 T cells, 0.025 ug/ml PEP3 with 5 nM PLA2-GIB",[3],18%
same,"inhibition of pSTAT5 NT in CD4 T cells, 0.5 ug/ml PEP3 with 5 nM PLA2-GIB",[3],55%
same,"inhibition of pSTAT5 NT in CD4 T cells, 2.5 ug/ml PEP3 with 5 nM PLA2-GIB",[3],51%
